Reference: ChEMBL document CHEMBL1136781, “Comparison of in vitro P-glycoprotein screening assays: recommendations for their use in drug discovery” (J Med Chem, 2003)

Columns and labels:
[1] = Partition coefficient (logP); type: physicochemical; conditions: octanol/water
[2] = molecular target: T1, ATP-dependent translocase ABCB1 (Mus musculus, UniProt P06795); assay: Inhibition of P-glycoprotein, mouse L-mdr1b expressed in LLC-PK1 epithelial cells using calcein-AM polarisation assay; type: functional, cell-based
T1 sequence (P06795 whole entry): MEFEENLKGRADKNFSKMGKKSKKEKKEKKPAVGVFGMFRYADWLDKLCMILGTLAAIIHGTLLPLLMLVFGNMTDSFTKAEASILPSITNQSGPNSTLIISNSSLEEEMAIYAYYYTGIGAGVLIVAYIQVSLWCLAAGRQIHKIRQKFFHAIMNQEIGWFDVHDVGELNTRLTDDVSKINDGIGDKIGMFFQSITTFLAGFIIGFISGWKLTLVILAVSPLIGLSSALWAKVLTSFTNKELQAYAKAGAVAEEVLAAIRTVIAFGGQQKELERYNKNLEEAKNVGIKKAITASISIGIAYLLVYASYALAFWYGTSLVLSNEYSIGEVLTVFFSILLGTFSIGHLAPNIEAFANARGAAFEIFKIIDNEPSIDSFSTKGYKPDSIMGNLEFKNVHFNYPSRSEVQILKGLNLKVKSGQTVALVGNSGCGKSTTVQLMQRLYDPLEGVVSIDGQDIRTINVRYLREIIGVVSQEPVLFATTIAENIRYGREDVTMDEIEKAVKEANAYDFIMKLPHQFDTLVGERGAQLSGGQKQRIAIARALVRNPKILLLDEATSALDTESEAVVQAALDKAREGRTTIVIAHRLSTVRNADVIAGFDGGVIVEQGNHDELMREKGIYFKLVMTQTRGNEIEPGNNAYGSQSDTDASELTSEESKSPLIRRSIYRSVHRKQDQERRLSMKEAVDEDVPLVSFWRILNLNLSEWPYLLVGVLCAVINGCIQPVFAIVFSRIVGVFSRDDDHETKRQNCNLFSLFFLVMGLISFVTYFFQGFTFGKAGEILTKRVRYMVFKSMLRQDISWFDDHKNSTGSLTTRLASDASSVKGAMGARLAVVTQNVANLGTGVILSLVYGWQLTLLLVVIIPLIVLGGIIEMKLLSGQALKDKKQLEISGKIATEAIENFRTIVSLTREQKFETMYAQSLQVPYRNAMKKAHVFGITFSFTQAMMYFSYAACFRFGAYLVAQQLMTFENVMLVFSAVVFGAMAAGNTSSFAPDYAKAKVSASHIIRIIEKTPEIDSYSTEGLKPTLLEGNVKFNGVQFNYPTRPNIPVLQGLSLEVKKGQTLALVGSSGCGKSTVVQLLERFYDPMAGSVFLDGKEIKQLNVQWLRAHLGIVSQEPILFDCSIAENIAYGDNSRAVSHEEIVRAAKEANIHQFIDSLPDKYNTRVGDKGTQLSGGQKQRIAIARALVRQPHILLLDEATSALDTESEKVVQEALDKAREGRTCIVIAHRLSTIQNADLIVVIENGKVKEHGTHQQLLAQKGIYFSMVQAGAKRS

[3] = molecular target: T2, ATP-dependent translocase ABCB1 (Homo sapiens, UniProt P08183); assay: Inhibition of P-gp was determined using rhodamine-assay in human CaCo-2 cells; type: functional, cell-based; parameters: concentration or dose not given beside the values
Target sequence in this assay (P08183 whole entry): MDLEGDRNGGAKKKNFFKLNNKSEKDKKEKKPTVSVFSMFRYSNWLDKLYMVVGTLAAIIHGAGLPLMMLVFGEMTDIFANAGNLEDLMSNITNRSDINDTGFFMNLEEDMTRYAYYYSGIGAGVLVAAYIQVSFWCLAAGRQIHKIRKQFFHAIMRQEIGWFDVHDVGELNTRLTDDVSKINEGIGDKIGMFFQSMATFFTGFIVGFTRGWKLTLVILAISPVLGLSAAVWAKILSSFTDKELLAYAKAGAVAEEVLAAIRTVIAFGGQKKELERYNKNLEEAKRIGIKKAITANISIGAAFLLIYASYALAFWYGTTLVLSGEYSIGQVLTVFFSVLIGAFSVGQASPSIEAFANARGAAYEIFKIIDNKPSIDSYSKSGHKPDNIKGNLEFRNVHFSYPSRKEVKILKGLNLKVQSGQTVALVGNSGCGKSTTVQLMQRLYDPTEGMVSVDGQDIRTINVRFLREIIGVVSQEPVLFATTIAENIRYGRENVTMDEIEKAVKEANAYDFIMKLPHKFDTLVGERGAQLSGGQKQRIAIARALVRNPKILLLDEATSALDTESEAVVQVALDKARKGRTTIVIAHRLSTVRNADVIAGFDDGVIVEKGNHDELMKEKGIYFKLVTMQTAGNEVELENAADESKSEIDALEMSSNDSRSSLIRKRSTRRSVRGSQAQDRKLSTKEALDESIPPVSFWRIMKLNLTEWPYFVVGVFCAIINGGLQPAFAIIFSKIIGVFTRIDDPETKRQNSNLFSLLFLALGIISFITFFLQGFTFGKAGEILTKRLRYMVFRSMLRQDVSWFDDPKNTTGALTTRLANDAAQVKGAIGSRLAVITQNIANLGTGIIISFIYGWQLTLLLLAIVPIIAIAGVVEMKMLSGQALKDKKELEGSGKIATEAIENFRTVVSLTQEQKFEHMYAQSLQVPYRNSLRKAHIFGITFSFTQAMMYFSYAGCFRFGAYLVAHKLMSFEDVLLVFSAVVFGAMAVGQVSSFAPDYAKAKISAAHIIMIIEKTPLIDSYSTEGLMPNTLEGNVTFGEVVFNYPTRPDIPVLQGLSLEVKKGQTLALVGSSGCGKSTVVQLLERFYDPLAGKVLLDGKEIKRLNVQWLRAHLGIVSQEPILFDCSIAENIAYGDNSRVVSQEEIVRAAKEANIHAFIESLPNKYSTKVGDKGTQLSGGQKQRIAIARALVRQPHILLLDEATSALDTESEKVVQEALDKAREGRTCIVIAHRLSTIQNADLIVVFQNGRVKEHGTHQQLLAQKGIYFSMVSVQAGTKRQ

[4] = molecular target: T2, ATP-dependent translocase ABCB1; assay: Inhibition of P-glycoprotein using ATPase in MDR1 membranes; type: functional, cell membranes
Target sequence in this assay (P08183 whole entry): as above

[5] = molecular target: T2, ATP-dependent translocase ABCB1; assay: TP_TRANSPORTER: inhibition of Rhodamine 123 efflux in Caco-2 cells; type: functional, cell-based; parameters: concentration or dose not given beside the values; scale not given: the % may be the effect or the level left
Target sequence in this assay (P08183 whole entry): as above

[6] = molecular target: T1, ATP-dependent translocase ABCB1; assay: TP_TRANSPORTER: inhibition of Calcein-AM efflux in Mdr1b-expressing LLC-PK1 cells; type: functional, cell-based
[7] = molecular target: T3, ATP-dependent translocase ABCB1 (Mus musculus, UniProt P21447); assay: P-gp activity was measured by a direct transport assay, using polarized LLC-PK1 epithelial cells; type: functional, cell-based; conditions: human
T3 sequence (P21447 whole entry): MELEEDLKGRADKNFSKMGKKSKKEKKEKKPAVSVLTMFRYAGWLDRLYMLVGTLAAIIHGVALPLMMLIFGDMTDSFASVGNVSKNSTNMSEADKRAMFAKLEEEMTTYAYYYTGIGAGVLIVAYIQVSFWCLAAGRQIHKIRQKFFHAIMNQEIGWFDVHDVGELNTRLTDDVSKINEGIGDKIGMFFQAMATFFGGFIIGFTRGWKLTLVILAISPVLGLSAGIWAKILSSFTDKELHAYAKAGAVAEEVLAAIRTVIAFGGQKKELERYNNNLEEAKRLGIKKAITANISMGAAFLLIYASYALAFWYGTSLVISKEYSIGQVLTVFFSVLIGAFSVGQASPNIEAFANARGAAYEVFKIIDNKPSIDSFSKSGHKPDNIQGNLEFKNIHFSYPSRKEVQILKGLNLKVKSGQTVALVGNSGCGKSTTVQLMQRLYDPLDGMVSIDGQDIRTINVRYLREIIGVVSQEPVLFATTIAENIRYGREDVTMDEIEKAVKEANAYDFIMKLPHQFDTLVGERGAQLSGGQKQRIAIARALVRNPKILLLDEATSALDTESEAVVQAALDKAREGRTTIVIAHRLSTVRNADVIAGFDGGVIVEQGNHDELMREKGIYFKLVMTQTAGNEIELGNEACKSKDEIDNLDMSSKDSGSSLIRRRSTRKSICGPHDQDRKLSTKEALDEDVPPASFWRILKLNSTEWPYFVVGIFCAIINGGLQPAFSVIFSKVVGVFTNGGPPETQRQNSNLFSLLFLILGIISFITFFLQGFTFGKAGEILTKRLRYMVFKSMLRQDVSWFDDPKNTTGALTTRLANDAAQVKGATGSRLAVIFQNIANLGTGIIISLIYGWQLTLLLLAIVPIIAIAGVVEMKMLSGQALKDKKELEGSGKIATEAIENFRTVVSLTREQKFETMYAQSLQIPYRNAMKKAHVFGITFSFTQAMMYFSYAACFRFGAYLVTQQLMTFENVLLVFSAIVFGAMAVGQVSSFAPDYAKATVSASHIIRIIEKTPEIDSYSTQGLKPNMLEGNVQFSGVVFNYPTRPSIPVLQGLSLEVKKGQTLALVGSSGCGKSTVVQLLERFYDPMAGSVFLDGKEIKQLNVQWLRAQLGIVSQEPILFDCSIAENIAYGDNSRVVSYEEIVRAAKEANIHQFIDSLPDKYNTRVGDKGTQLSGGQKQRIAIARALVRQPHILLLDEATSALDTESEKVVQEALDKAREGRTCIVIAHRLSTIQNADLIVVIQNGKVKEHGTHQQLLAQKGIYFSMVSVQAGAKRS

[8] = molecular target: T3, ATP-dependent translocase ABCB1; assay: P-gp activity was measured by a direct transport assay, using polarized LLC-mdr1a epithelial cells; type: functional, cell-based; conditions: human, epithelial cell
[9] = molecular target: T3, ATP-dependent translocase ABCB1; assay: Inhibition of P-glycoprotein, mouse L-mdr1a expressed in LLC-PK1 epithelial cells using calcein-AM polarisation assay; type: functional, cell-based
[10] = molecular target: T3, ATP-dependent translocase ABCB1; assay: TP_TRANSPORTER: inhibition of Calcein-AM efflux in Mdr1a-expressing LLC-PK1 cells; type: functional, cell-based
[11] = molecular target: T4, Cytochrome P450 3A4 (Homo sapiens, UniProt P08684)
T4 sequence (P08684 whole entry): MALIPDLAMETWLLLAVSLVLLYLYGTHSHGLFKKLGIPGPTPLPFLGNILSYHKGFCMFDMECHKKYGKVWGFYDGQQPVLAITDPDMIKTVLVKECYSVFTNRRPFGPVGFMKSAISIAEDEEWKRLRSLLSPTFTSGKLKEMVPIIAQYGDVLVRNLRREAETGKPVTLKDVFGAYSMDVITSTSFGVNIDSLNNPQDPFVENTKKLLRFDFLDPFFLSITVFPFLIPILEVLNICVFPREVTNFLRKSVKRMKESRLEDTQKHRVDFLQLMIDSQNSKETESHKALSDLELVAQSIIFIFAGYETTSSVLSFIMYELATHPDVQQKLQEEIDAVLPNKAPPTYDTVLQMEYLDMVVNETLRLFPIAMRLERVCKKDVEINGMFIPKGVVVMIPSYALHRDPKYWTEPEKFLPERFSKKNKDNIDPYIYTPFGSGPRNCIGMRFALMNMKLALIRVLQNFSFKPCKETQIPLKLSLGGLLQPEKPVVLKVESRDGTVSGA
Description: Inhibition of human cytochrome P450 3A4

[12] = molecular target: T2, ATP-dependent translocase ABCB1; assay: P-gp activity was measured by a direct transport assay, using polarized LLC-MDR1 epithelial cells; conditions: epithelial cell
[13] = molecular target: T2, ATP-dependent translocase ABCB1; assay: Inhibition of P-glycoprotein, human L-MDR1 expressed in LLC-PK1 epithelial cells using calcein-AM polarisation assay; type: functional, cell-based
Target sequence in this assay (P08183 whole entry): as the sequence (P08183 whole entry) above

[14] = molecular target: T2, ATP-dependent translocase ABCB1; assay: TP_TRANSPORTER: inhibition of Calcein-AM efflux in MDR1-expressing LLC-PK1 cells; type: functional, cell-based
Target sequence in this assay (P08183 whole entry): as above

[15] = molecular target: T4, Cytochrome P450 3A4; remark: listed apart in the source
Description: Inhibition of human cytochrome P450 3A4

| Compound | logP ([1]; read-out: logP) | IC50 [2] | Inhibition [3] | Activity [4] | Activity [5] | IC50 [6] | IC50 [9] | IC50 [10] | also measured |
| --- | --- | --- | --- | --- | --- | --- | --- | --- | --- |
| CC(C)(C)NC(=O)[C@@H]1C[C@@H]2CCCC[C@@H]2CN1C[C@@H](O)[C@H](Cc1ccccc1)NC(=O)[C@H](CC(N)=O)NC(=O)c1ccc2ccccc2n1 | 4.7 | > 50 µM | 43% | 30 nmol/min/mg | 43% | > 50 µM | – | – | – |
| CC1(C)SSC(C)(C)[C@@H](NC(=O)[C@@H](N)Cc2ccc(O)cc2)C(=O)NCC(=O)N[C@@H](Cc2ccccc2)C(=O)N[C@H]1C(=O)O | 1 | > 50 µM | 0% | 4 nmol/min/mg | 0% | > 50 µM | > 50 µM | > 50 µM | Ratio [7]: 0.8; Ratio [8]: 0.9; IC50 [11]: > 50 µM; Ratio [12]: 0.6 |
| Cc1c(O)cccc1C(=O)N[C@@H](CSc1ccccc1)[C@H](O)CN1C[C@H]2CCCC[C@H]2C[C@H]1C(=O)NC(C)(C)C | – | – | 30% | 6.2 nmol/min/mg | 30% | – | 2.3 µM | 2.3 µM | logP [1]: 5.8 |
| COc1ccc(CCN2CCC(Nc3nc4ccccc4n3Cc3ccc(F)cc3)CC2)cc1 [ASTEMIZOLE] | 5.7 | 1.7 µM | 39% | 18 nmol/min/mg | 39% | 1.7 µM | 1.3 µM | 1.3 µM | – |
| CN/C(=N/CCSCc1nc[nH]c1C)NC#N [CIMETIDINE] | – | > 50 µM | 4% | 2.8 nmol/min/mg | 4% | > 50 µM | – | – | – |
| Clc1ccccc1C(c1ccccc1)(c1ccccc1)n1ccnc1 [CLOTRIMAZOLE] | 5.3 | 3.5 µM | 29% | 7.5 nmol/min/mg | 29% | 3.5 µM | 4.8 µM | 4.8 µM | – |
| COc1cc2c(c(OC)c1OC)-c1ccc(OC)c(=O)cc1[C@@H](NC(C)=O)CC2 [COLCHICINE] | – | > 50 µM | 8% | 0.1 nmol/min/mg | 8% | > 50 µM | > 50 µM | > 50 µM | IC50 [13]: > 50 µM; IC50 [14]: > 50 µM |
| C[C@@H]1C[C@H]2[C@@H]3CCC4=CC(=O)C=C[C@]4(C)[C@@]3(F)[C@@H](O)C[C@]2(C)[C@@]1(O)C(=O)CO [DEXAMETHASONE] | 1.7 | > 50 µM | 0% | 4 nmol/min/mg | 0% | > 50 µM | > 50 µM | > 50 µM | IC50 [13]: > 50 µM; IC50 [14]: > 50 µM |
| C[C@H]1O[C@@H](O[C@H]2[C@@H](O)C[C@H](O[C@H]3[C@@H](O)C[C@H](O[C@H]4CC[C@@]5(C)[C@H](CC[C@@H]6[C@@H]5C[C@@H](O)[C@]5(C)[C@@H](C7=CC(=O)OC7)CC[C@]65O)C4)O[C@@H]3C)O[C@@H]2C)C[C@H](O)[C@@H]1O [DIGOXIN] | – | > 50 µM | – | – | – | > 50 µM | > 50 µM | > 50 µM | – |
| CC[C@H]1OC(=O)[C@H](C)[C@@H](O[C@H]2C[C@@](C)(OC)[C@@H](O)[C@H](C)O2)[C@H](C)[C@@H](O[C@@H]2O[C@H](C)C[C@H](N(C)C)[C@H]2O)[C@](C)(O)C[C@@H](C)C(=O)[C@H](C)[C@@H](O)[C@]1(C)O [ERYTHROMYCIN] | 2.5 | – | – | 4 nmol/min/mg | – | – | > 50 µM | – | IC50 [11]: 33 µM |
| COc1cc([C@@H]2c3cc4c(cc3[C@@H](O[C@@H]3O[C@@H]5CO[C@@H](C)O[C@H]5[C@H](O)[C@H]3O)[C@H]3COC(=O)[C@H]23)OCO4)cc(OC)c1O [ETOPOSIDE] | 0.6 | > 50 µM | – | -0.2 nmol/min/mg | – | > 50 µM | – | – | – |
| CCC(C)n1ncn(-c2ccc(N3CCN(c4ccc(OCC5COC(Cn6cncn6)(c6ccc(Cl)cc6Cl)O5)cc4)CC3)cc2)c1=O (centres undefined) [ITRACONAZOLE] | – | – | – | – | 2% | – | – | 0.2 µM | – |
| CCC(C)n1ncn(-c2ccc(N3CCN(c4ccc(OC[C@H]5CO[C@](Cn6cncn6)(c6ccc(Cl)cc6Cl)O5)cc4)CC3)cc2)c1=O (some centres undefined) [ITRACONAZOLE] | 6.5 | – | 2% | 18 nmol/min/mg | – | – | 0.2 µM | – | – |
| COCC(=O)O[C@]1(CCN(C)CCCc2nc3ccccc3[nH]2)CCc2cc(F)ccc2[C@@H]1C(C)C [MIBEFRADIL] | – | 10 µM | 60% | 8.9 nmol/min/mg | 60% | 10 µM | 7.4 µM | 7.4 µM | logP [1]: 6.2 |
| Clc1ccc(COC(Cn2ccnc2)c2ccc(Cl)cc2Cl)c(Cl)c1 (centres undefined) [MICONAZOLE] | 5.8 | – | 22% | 1 nmol/min/mg | 22% | – | 7.8 µM | 7.8 µM | – |
| Cc1ncc2n1-c1ccc(Cl)cc1C(c1ccccc1F)=NC2 [MIDAZOLAM] | 3.3 | 33 µM | 12% | 6 nmol/min/mg | 12% | 33 µM | > 50 µM | > 50 µM | IC50 [13]: > 50 µM; IC50 [14]: > 50 µM |
| COC(=O)C1=C(C)NC(C)=C(C(=O)OCCN(C)Cc2ccccc2)C1c1cccc([N+](=O)[O-])c1 (centres undefined) [NICARDIPINE] | 5.5 | 8 µM | – | 18 nmol/min/mg | 100% | 8 µM | 2.5 µM | 2.5 µM | – |
| CC1(C)S[C@@H]2[C@H](NC(=O)Cc3ccccc3)C(=O)N2[C@H]1C(=O)O [PENICILLIN G] | – | – | – | – | – | – | – | – | Ratio [8]: 1.1 |
| O=c1[nH]c2ccccc2n1C1CCN(CCCC(c2ccc(F)cc2)c2ccc(F)cc2)CC1 [PIMOZIDE] | – | > 50 µM | 37% | 11 nmol/min/mg | 37% | > 50 µM | – | – | – |
| C=C[C@H]1C[N@@]2CC[C@H]1C[C@@H]2[C@@H](O)c1ccnc2ccc(OC)cc12 [QUINIDINE] | 2.8 | 10 µM | – | 20 nmol/min/mg | – | 10 µM | 13 µM | 13 µM | – |
| CN/C(=C\[N+](=O)[O-])NCCSCc1ccc(CN(C)C)o1 [RANITIDINE] | 0.6 | > 50 µM | 0% | -2.4 nmol/min/mg | – | – | > 50 µM | – | IC50 [13]: > 50 µM |
| CNC(=C[N+](=O)[O-])NCCSCc1ccc(CN(C)C)o1 [RANITIDINE] | – | – | – | – | 0% | > 50 µM | – | > 50 µM | IC50 [14]: > 50 µM |
| CC(C)c1nc(CN(C)C(=O)N[C@H](C(=O)N[C@@H](Cc2ccccc2)C[C@H](O)[C@H](Cc2ccccc2)NC(=O)OCc2cncs2)C(C)C)cs1 [RITONAVIR] | 4.9 | – | – | – | – | – | – | – | – |
| CC(C)(C)c1ccc(C(O)CCCN2CCC(C(O)(c3ccccc3)c3ccccc3)CC2)cc1 (centres undefined) [TERFENADINE] | 5.7 | 2 µM | – | 0.4 nmol/min/mg | – | 2 µM | – | – | – |
| CC[C@]1(O)C[C@@H]2CN(CCc3c([nH]c4ccccc34)[C@@](C(=O)OC)(c3cc4c(cc3OC)N(C)[C@H]3[C@@](O)(C(=O)OC)[C@H](OC(C)=O)[C@]5(CC)C=CCN6CC[C@]43[C@@H]65)C2)C1 [VINBLASTINE] | – | 8 µM | 75% | 33 nmol/min/mg | 75% | 8 µM | > 50 µM | > 50 µM | logP [1]: 5.2 |
| IVERMECTIN | – | – | 34% | -3.4 nmol/min/mg | 34% | – | – | – | logP [1]: 4; IC50 ([2]; llc-pk1): 0.5 µM; IC50 ([13]; llc-pk1): 0.1 µM; IC50 ([9]; llc-pk1): 0.5 µM; IC50 ([10]; llc-pk1): 0.5 µM; IC50 ([14]; llc-pk1): 0.1 µM; IC50 ([6]; llc-pk1): 0.5 µM; IC50 [15]: > 50 µM |
